Consider eight compounds from publication PMC6055169 (Proceedings of the National Academy of Sciences of the …, 2018).

Common to all, as to format: cell-based
One assay concerns the target TRPV4 (Rattus norvegicus, UniProt Q9ERZ8). Put plainly: Fluo-4 calcium imaging in transfected HEK293A cells, agonist at […].
In assay [1] the target is T1, TRPV1 (Mus musculus, UniProt Q704Y3). Nature of the assay: Fluo-4 calcium imaging in TRPV1-transfected HEK293A cells, […].
Assay [2] concerns the target T1, TRPV1. Nature of the assay: Fluo-4 calcium imaging in transfected HEK293A cells, agonist at […].
For assay [3], the target named is T2, TRPA1 (Mus musculus, UniProt Q8BLA8). Described as above.
T2 sequence (Q8BLA8 whole entry): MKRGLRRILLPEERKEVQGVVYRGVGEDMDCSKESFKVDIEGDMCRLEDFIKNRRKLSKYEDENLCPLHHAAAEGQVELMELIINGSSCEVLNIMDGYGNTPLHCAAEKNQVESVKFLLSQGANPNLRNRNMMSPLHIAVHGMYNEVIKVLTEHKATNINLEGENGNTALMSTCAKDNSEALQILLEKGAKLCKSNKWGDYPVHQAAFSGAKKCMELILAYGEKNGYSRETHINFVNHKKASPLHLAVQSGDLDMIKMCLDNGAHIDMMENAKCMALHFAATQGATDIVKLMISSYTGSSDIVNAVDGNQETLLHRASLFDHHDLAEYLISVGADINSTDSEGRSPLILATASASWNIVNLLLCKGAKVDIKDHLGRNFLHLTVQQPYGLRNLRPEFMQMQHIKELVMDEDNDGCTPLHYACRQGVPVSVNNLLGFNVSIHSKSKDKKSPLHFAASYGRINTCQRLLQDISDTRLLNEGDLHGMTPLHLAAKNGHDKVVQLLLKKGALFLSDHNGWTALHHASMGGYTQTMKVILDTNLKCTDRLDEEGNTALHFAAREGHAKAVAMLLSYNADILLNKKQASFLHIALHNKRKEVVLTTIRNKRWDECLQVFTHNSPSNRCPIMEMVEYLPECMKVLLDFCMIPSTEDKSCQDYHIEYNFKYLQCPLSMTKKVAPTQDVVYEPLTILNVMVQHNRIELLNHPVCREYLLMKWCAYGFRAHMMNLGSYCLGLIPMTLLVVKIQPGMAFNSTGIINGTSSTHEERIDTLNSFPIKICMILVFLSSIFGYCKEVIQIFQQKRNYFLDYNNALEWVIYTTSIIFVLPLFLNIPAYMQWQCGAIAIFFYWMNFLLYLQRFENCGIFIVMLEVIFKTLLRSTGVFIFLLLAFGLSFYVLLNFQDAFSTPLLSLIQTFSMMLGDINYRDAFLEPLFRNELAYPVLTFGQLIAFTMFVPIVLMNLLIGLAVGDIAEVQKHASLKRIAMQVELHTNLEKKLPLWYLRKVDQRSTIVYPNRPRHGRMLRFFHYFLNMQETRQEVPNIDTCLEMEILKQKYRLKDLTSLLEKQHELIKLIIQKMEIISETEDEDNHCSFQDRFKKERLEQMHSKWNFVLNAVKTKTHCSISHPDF
Assay [4] concerns the target T1, TRPV1.
Assay [5] has as its target T2, TRPA1. Particulars: HEK293-A, read-out: % reduction at 50 μM.
For assay [6], the target named is T1, TRPV1. The settings on record: HEK293-A, read-out: % reduction at 50 μM.
Assay [7] concerns the target T2, TRPA1. Particulars: HEK293-A, read-out: % reduction at 50 μM. This is another data set of the same source.

Where two headings read alike, the source gives them in different places.

T1 sequence (Q704Y3 whole entry): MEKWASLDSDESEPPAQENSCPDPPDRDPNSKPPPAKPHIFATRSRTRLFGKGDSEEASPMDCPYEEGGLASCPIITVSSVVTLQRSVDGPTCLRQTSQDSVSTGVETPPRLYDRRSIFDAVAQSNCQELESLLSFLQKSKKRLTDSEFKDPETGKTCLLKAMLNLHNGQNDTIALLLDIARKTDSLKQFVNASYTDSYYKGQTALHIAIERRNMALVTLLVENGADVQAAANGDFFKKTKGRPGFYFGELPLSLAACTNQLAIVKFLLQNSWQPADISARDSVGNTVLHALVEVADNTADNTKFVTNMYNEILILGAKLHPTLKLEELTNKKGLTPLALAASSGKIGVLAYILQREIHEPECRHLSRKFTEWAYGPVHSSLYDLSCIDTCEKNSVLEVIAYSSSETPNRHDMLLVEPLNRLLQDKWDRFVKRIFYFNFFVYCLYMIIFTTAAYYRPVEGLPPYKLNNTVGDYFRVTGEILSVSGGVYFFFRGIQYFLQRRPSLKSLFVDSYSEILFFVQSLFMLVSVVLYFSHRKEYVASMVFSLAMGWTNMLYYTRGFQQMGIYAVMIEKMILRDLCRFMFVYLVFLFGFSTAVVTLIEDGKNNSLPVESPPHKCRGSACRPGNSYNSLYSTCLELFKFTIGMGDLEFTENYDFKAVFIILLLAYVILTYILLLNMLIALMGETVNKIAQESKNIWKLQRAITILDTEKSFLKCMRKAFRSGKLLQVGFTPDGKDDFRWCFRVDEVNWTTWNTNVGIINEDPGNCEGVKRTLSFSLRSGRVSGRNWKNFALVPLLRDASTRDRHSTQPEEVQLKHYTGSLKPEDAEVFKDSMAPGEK
Chain of TRPV4 (Q9ERZ8 whole entry): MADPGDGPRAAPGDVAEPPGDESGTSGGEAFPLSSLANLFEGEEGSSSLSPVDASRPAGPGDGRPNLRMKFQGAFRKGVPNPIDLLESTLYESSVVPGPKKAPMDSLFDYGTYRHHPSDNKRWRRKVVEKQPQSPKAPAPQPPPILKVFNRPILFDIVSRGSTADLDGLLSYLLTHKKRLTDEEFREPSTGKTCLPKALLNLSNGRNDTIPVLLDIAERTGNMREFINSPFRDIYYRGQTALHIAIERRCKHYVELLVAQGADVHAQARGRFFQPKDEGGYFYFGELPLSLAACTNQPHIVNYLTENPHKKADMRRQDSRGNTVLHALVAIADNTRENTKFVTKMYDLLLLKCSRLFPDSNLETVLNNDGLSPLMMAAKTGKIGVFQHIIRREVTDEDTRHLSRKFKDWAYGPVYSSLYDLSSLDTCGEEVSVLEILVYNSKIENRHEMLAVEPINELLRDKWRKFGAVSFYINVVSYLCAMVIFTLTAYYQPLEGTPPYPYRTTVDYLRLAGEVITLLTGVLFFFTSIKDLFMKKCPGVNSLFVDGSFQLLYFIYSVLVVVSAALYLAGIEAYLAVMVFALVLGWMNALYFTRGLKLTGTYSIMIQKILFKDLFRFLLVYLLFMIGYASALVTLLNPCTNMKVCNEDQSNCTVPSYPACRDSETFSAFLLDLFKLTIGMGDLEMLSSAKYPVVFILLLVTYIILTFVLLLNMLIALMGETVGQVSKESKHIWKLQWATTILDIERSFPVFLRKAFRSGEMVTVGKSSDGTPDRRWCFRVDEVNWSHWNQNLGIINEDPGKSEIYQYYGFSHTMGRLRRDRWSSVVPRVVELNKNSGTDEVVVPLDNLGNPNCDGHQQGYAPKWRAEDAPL

With `CC(C)C[C@H](NC(=O)c1cc2ccccc2s1)C(=O)N1CCN(C(=O)[C@H](CO)NS(=O)(=O)c2ccc(Cl)cc2Cl)CC1` [GSK1016790A], the “Fluo-4 calcium imaging in transfected HEK293A cells, agonist at 0.2 μM” value at TRPV4 was “only channel-transfected, RFP^+ cells, but not untransfected, RFP^− cells, exhibited a calcium flux in response to the corresponding agonist”. Turning to `CCCCCCCC/C=C\CCCCCCCC(=O)N[C@H](CCC(N)=O)C(=O)O` [C18:1-D-Gln], the “Fluo-4 calcium imaging in TRPV1-transfected HEK293A cells, 50 μM” value at TRPV1 [1] was “the unnatural enantiomer C18:1-D-Gln fully antagonized capsaicin-induced TRPV1 calcium flux”. For `COc1cc(CNC(=O)CCCC/C=C/C(C)C)ccc1O` [capsaicin], the “Fluo-4 calcium imaging in transfected HEK293A cells, agonist at 10 μM” value at TRPV1 [2] was “capsaicin treatment induced a robust increase in the intracellular calcium concentration in the TRPV1-transfected, RFP^+ cells”. For the compound `C=CCN=C=S` [allyl isothiocyanate], the “Fluo-4 calcium imaging in transfected HEK293A cells, agonist at 10 μM” value at TRPA1 [3] is on record as “only channel-transfected, RFP^+ cells, but not untransfected, RFP^− cells, exhibited a calcium flux in response to the corresponding agonist”. The term IC50 denotes the concentration that inhibits the measured activity by half. High values mean weaker potency in that assay, low ones greater potency in that assay. `CCCCCCCC/C=C\CCCCCCCC(=O)N[C@@H](CCC(N)=O)C(=O)O` [C18:1-Gln, N-oleoyl-glutamine] registered a 50% inhibitory concentration (IC50) against TRPV1 [4] of 1.3 µM. In addition, the inhibition at 50 µM on TRPA1 [5] is 94 ± 5%.

`CCCCCCCC/C=C\CCCCCCCC(=O)N[C@@H](CC(N)=O)C(=O)O` [C18:1-Asn]: the inhibition at 50 µM on TRPV1 [6] worked out at 49 ± 7%. With `CCCCC/C=C\C/C=C\C/C=C\C/C=C\CCCC(=O)N[C@@H](Cc1ccccc1)C(=O)O` [C20:4-Phe], the inhibition at 50 µM at TRPA1 [7] is 87 ± 5%. Same read-out and setting: with `CCCCC/C=C\C/C=C\C/C=C\C/C=C\CCCC(=O)N[C@@H](CO)C(=O)O` [C20:4-Ser] the figure was 68 ± 8%.
